IC50 data for 2 compounds are collected here from patent US7189856B2 (priority 2001, dated 2007).

This test concerns the target T1, human SSTR2 receptors (Homo sapiens, UniProt P30874).
T1 construct: expressed in transfected cells; host or cells: CHO-K1 cells
Briefly: inhibition of [125I] Somatostatin binding to human SSTR2 receptors expressed in CHO-K1 cells. How it is done: FIG. 1 illustrates the logarithmic concentration-response curves for inhibition of [^125I] […] Test compounds were tested in duplicate at all concentrations. The average percent inhibition of duplicate was used for plotting the displacement curves, fitted by non-linear regression.
FIG. 2 illustrates the logarithmic concentration-response curves for inhibition of [^125I] […] Test compounds were tested in duplicate at all concentrations. The average percent inhibition of duplicate was used for plotting the displacement curves, fitted by non-linear regression.

Structures can show the parent of a compound that is named as a salt.

T1 sequence (P30874 whole entry): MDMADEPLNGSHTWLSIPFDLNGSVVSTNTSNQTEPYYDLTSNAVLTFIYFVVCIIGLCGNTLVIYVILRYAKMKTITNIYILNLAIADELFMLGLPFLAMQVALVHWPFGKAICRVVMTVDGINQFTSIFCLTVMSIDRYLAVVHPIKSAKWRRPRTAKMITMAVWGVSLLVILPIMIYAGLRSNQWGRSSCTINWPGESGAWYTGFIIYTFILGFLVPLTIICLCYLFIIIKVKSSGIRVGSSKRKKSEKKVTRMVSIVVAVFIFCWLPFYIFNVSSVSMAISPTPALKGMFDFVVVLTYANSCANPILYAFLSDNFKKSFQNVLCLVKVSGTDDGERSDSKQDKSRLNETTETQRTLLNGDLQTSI

By IC50 is commonly meant the concentration that gives 50% inhibition. High values mean weaker potency in that assay, low ones greater potency in that assay. In the case of `CN(C)C(=O)c1cc(S(=O)(=O)N2C(=O)N(CC3CCC[C@@H](CN)C3)C(=O)[C@@H]2Cc2c[nH]c3ccccc23)ccc1Oc1ccc(O)c(Cl)c1` (single isomer, unassigned) [Example 15a HCl salt], the half-inhibitory concentration (IC50) turned out to be 0.29 ± 0.0395 nM.
The compound `CN(C)C(=O)c1cc(S(=O)(=O)N2C(=O)N(C[C@@H]3CCC[C@H](CN)C3)C(=O)[C@@H]2Cc2c[nH]c3ccccc23)ccc1Oc1ccc(O)c(Cl)c1` (single isomer, unassigned) [Example 15b HCl salt] displayed an IC50 of 1.3 ± 0.183 nM.
